Experimental data reported in US7598291B2, “Methods and compositions for enhancing collagen and proteoglycan synthesis in the skin” (priority 2004, dated 2009).

How the values were obtained:
[1] = topical application, hairless mice; reduced in the process to dihydrolipoic acid; cited from earlier work
[2] = system: skin fibroblasts; experiment: Collagen synthesis in vitro (radioproline incorporation) in skin fibroblasts; format: cell-based, human; conditions: lipoic acid 0 to 5 μg/ml (FIG. 5), proanthocyanidin vs control (FIG. 6)
Protocol: Rat skin fibroblasts and NIH 3T3 cells were used to measure collagen synthesis in vitro. Cells at a density of 100×10^3 in 24-well-plates were grown with 10% FBS/DMEM (Irvine Scientific, CA) supplemented with different doses of lipoic acid (0-16 μg/ml). Cells were incubated at 37° C. in a 5% CO2 environment for 24 hours. Medium was changed into labeling medium for another 24 hours (50 μCi/ml [^3H]proline, 25 μg/ml ascorbic acid, 25 μg/ml β-aminoproprionitrile (β-APN)). Collagen synthesis from cultured cells was assayed as previously described (B. Han et al. (2003), supra). Briefly, cells and medium were acidified with glacial acetic acid to a final concentration of 0.5 M and pepsin (Worthington) added to a final concentration of 0.5 mg/ml. Plates were shaken overnight at 4° C., collagen precipitated with 4.0 M NaCl and pellets washed with 20% cold ethanol 3 times. Pellets were dissolved with 0.5 M acetic acid and counted with a scintillation counter (Beckman)

[3] = system: lipid peroxidation; conditions: old rats, diet supplemented with lipoic acid; cited from earlier work
[4] = system: rat hepatocytes; conditions: older rats, 2-week dietary supplementation prior to hepatocyte isolation; cited from earlier work
[5] = system: skin fibroblasts; experiment: Cell proliferation assay (thymidine incorporation); format: cell-based, human; conditions: vs control; FIG. 6
Protocol: NIH 3T3 fibroblasts were cultured in DMEM containing 10% fetal bovine serum in 24-well plates at a density of 80×10^3. After overnight attachment, medium was changed to a conditioning medium with different dosages of lipoic acid (20 ng-20 μg). DNA content was assayed after 48 hours in culture. Briefly, cells were trypsinized with 0.25% trypsin-EDTA and pelleted by centrifugation. To the cell pellet, 1.5 ml of cold 10 mM EDTA (pH 12.3) was added to solubilize cells. After neutralizing with 1.0 M KH2PO4 (140 μl) and mixing with 0.5 ml of 100 mM NaCl/10 mM Tris (pH 7.0), 10 μl of 66.7 μg/ml Hoechst 33258 (Sigma) was added to give fluorescent readings at emissions of 350 nm and 450 nm. Cell numbers were obtained by comparing the reading to a standard curve of cellular DNA (1×10^4 to 1×10^6 fibroblast). [^3H]Thymidine incorporation into DNA was performed as previously described (B. Han et al., “Proanthocyanidin: A Natural Crosslinking Reagent for Stabilizing Collagen Matrices,” J. Biomed. Mater. Res. 65A: 118-24 (2003)).

Molecule	penetration across the skin barrier [1]	collagen synthesis in vitro (incorporation of radioproline) [2]	levels of malondialdehyde, an indicator of lipid peroxidation [3]	age-associated effects on ascorbic acid metabolism [4]	cellular proliferation (incorporation of thymidine) [5]
O=C(O)CCCC[C@@H]1CCSS1 (racemic) [lipoic acid, 1,2-dithiolane-3-pentanoic acid]	effectively penetrate across the skin barrier	–	–	–	–
O=C(O)CCCC[C@@H]1CCSS1 (stereo in doubt) [lipoic acid, 1,2-dithiolane-3-pentanoic acid]	–	increased	reduced	almost completely reversed	–
proanthocyanidin	–	increased	–	–	increase in cellular proliferation
